Earlier results, collected in patent EP0002485B1, “Process for the preparation of marking compositions containing tin” (HOECHST AKTIENGESELLSCHAFT, priority 1977, dated 1979).

Tests used:
[1] = labelled with Tc-99m; compared with pyro- and polyphosphates
[2] = time until optimum of skeletal accumulation

Substance | Plasmaclearance [1] | Anreicherung im Skelett erreicht das Optimum [2]
1-Hydroxyäthan-1,1-diphosphonsäure [HEDP] | bedeutend schnellere | –
Methylendiphosphonsäure [MDP] | – | zwei
